Experiments:
[1] = tested on: R8 (rat lymphocyte) cells; assay: LDH release cell viability, healthy R8 cells; type: cell-based; settings: 30 µM, 3 h (6 µM not tested)
[2] = tested on: HEK-293 (human embryonic kidney) cells; assay: Cell viability, healthy HEK-293 cells; type: cell-based; settings: 3 h
recombinant cyclin F-GST = assay: Surface plasmon resonance, Psd1-cyclin F interaction; type: binding
Description: Surface plasmon resonance (SPR) assays were run on a Biacore X (GE Healthcare Life Sciences, Amersham, UK) apparatus in real time using a CM5 sensor chip at 25 °C. Briefly, CM5 chip activation was performed by injection of 100 µL of a 1:1 mixture of amine coupling kit (750 mg 1-ethyl-3-(3-dimethylaminopropyl) carbodiimide hydrochloride (EDC), 115 mg N-hydroxysuccinimide (NHS), 2 × 10.5 mL 1.0 M ethanolamine-HCl pH 8.5) with a continuous flow of 2 µL/min. Then, 100 µL of […] recombinant cyclin F-GST diluted in 10 mM sodium acetate pH 4.0 buffer was immobilized by amine coupling onto the carboxylate dextran layer of CM5 with the same flow. This was injected with 80 µL of 1 M ethanolamine pH 8.0 to block the remaining binding free sites of the protein. To evaluate the interaction of Psd1 with the cyclin F protein, increasing concentrations of the peptide (10–240 µM) in 100 µL of running buffer (10 mM HEPES, 150 mM NaCl, pH 7.4) were injected using a flow rate of 15 µL/min for 4 min. After the injection ended, the dissociation phase was measured in not less than 300 s. The Psd1-GST-cyclin F interaction curves were subtracted from the respective curves obtained for Psd1-GST to discount possible artifact interactions with GST alone. […]

B16F10 cells = assay: SYTOXGreen uptake (membrane permeabilization), B16F10 cells; type: cell-based, murine
Description: Figure 2 Psd1 promotes B16F10 live cell membrane permeabilization as monitored by SYTOX Green fluorescence. (A) Psd1 untreated and hydrogen peroxide-treated B16F10 cells. (B) A total of 1.5 × 10^4 B16F10 cells were incubated with 3 or 50 µM Psd1 for 30 min. (C) 1.5 × 10^4 B16F10 cells were incubated with 50 µM Psd1 for 1 h. All experiments were performed at 37 °C. Nucleus staining is shown in green (SYTOXGreen), and mitochondria are shown in red (MitoTracker Red CMXRos). Images are shown at 20× magnification. […] (E) Psd1 induces apoptosis in B16F10 cells. B16F10 cells were treated with 50 µM Psd1 for 24 h and labeled with propidium iodide, and the DNA content was analyzed by flow cytometry for the sub-G0/G1 profile. At least two independent experiments were performed. TEXT PRINTED IN THE PICTURE: (E) Control: Sub-G1: 4.4% | (E) Psd1: Sub-G1: 60.6% (50μM)
Images were obtained in the X, Y, and Z planes of the image, giving the image a 3-dimensional depth (Z-stack) at 100× magnification with a Zeiss Cell Observer Yokogawa Spinning Disk confocal microscope (Cell Observed SD, Carl-Zeiss, Oberkochen, Germany) located in the Microscopia Óptica de Luz Gustavo de Oliveira Castro (Plamol) platform in Universidade Federal do Rio de Janeiro. To measure the mean fluorescence intensity (MFI), Zen Lite Blue (Carl-Zeiss, Oberkochen, Germany) software was used. On average, thirty cells per field were analyzed in fourteen fields by experiments. Then, the region of interest (ROI), specifically the nucleus and mitochondria, was tagged on the cells photographed for fluorescence analysis, which is given by the software from the intensity of the pixels. Subsequently, the statistical test was performed using GraphPad Prism version 7.4, and the values presented are averages with the corresponding standard deviations (SDs).
B16F10 cells were trypsinized and counted, and 1.5 × 10^4 cells/well in DMEM containing 0.1% (w/v) bovine serum albumin BSA were plated in a cell-view glass bottom culture dish with four compartments (Thermo Fisher Scientific Inc, Maryland, USA) and then incubated at 37 °C overnight to adhere. Post-treatment, the cells were treated with 3 or 50 µM Psd1 for 30 or 60 min and maintained at the same temperature. Cells treated with only water or 0.0001% H2O2 for 30 min were used as the negative and positive controls, respectively. Washes with saline were carried out between the additions of each probe followed by incubation at room temperature. The cells were incubated with 1 µL of SG, 1.5 µL of MitoTracker Red CMXRos, and 2 µL of DAPI for 10, 20, and 10 min, respectively. The fluorescent images were acquired by confocal microscopy.

several fungal species = settings: cited from earlier work
From the text: (§1) The mechanism of action proposed for Psd1 antifungal activity includes its interaction with specific cell wall/membrane lipid targets, such as C8-desaturated and C9-methylated glucosylceramide (GlcCer), a fungal exclusive GSL, and ergosterol.

[3] = cited from earlier work
From the text: as §1

Psd1: 46-amino acid residue plant defensin isolated from pea seeds, expressed in Pichia pastoris (PDB 1JKZ) (KTCEHLADTYRGVCFTNASCDDHCKNKAHLISGTCHNWKCFCTQNC)
R8 cell viability (LDH release) [1]: no alteration in cell viability | HEK-293 cell viability [2]: no alteration in cell viability | SPR association phase, onset of response (recombinant cyclin F-GST; after Psd1 injection, 15 µL/min, 4 min): 80 s | SPR dissociation phase (recombinant cyclin F-GST; after injection ended): full dissociation phase was observed | SYTOXGreen entrance, nuclear staining (B16F10 cells; 3 µM and 50 µM, 30 min, 37 °C): intense green nuclear staining | Cell adhesion / shape (B16F10 cells; 50 µM, 1 h): started to lose their adhesion capacity, assuming a less spread shape | SYTOXGreen fluorescence signal (B16F10 cells; 50 µM, 1 h, 37 °C, p < 0.0001 vs 3 and 50 µM for 30 min): increased significantly | Antimicrobial activity against fungi (several fungal species): well-documented antimicrobial activity against several fungal species | Affinity to cholesterol-enriched lipid bilayers [3]: does not show good affinity

Reference: publication PMC7219108, “Pisum sativum Defensin 1 Eradicates Mouse Metastatic Lung Nodules from B16F10 Melanoma Cells” (International Journal of Molecular Sciences, 2020)
